Molecular target: T1, RACK1A (RECEPTOR FOR ACTIVATED C KINASE 1A) (Arabidopsis thaliana, UniProt O24456)
T1 construct: WD40 seven-bladed beta-propeller scaffold protein
Experiment: microscale thermophoresis (MST)
Format: binding

T1 sequence (O24456 whole entry): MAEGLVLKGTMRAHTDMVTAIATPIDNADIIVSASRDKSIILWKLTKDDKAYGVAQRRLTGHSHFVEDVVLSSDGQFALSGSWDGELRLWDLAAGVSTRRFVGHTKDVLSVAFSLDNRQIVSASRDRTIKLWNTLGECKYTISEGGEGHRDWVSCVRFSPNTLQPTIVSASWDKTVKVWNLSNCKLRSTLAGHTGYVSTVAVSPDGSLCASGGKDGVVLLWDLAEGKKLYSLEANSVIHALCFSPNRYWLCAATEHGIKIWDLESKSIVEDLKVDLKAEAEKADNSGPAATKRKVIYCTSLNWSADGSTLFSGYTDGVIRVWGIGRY

Kd: 32.8 ± 15.7 µM
SMILES: COc1cc(OC)cc(C(=O)Nc2ccc3ccccc3c2)c1 [DAPIA]

From article PMC12318229, “RACK1A positively regulates opening of the apical hook in Arabidopsis thaliana via suppression of its auxin response gradient” (Proceedings of the National Academy of Sciences of the …, 2025)
